From patent US20210261621A1, “Preparation of Dilipid Polymixins and Use Thereof as Antimicrobial Adjuvants” (priority 2018, published 2021)
Read-outs that look alike come from different tables or passages of the source.

System: P. aeruginosa PAO1
Design: MICDrug / MICDrug in combo / MIC of adjuvant in combo: unit not given beside the values
Details: for MICDrug: antibiotic alone
Experimental: The potential of the dilipid polymyxins to serve as an adjuvant in combination with other antibiotics was evaluated against P. aeruginosa PAO1 strain (Tables 4 and 7-12). […] Checkerboard assays were performed with the dilipid polymyxins in combination with twenty-one clinically-used antibiotics. The panel included representatives from the β-lactam, carbapenem, tetracycline, aminoglycoside and fluoroquinolone antibiotic families. Other agents that are used to treat Gram-negative bacterial infection such as fosfomycin, trimethoprim and chloramphenicol were also included. […] Fractional inhibitory concentration (FIC) index was calculated for each combination to measure potential synergism between the two agents. FIC was obtained by dividing the MIC of antibiotic/adjuvant in combination by the MIC of antibiotic/adjuvant alone, while FIC index was calculated by the summation of FIC indices for the antibiotic and adjuvant. An FIC index of ≤0.5, 0.5<x≤4, or >4 denotes for synergistic, additive or antagonistic interaction, respectively. Initially, we assessed the adjuvant properties of PMBN against the panel of 21 antibiotics.
The assay was performed on 96-well plates as previously described. Briefly, the antibiotic at study was 2-fold serially diluted along the x-axis, while the adjuvant was 2-fold serially diluted along the y-axis to create a matrix in which each well consists of a combination of both at different concentrations. Overnight grown bacterial cultures were diluted in saline to 0.5 McFarland turbidity, followed by 1:50 dilution in MHB and inoculation on each well to a final concentration of approximately 5×10^5 colony forming units/mL. Wells containing only MHB with or without bacterial cells were used as positive or negative control, respectively. […] The fractional inhibitory concentration (FIC) of the antibiotic was calculated via dividing the MIC of antibiotic in the presence of adjuvant by the MIC of antibiotic alone. Similarly, the FIC of adjuvant was calculated via dividing the MIC of adjuvant in the presence of antibiotic by the MIC of adjuvant alone. The FIC index was obtained by the summation of both FIC values. The FIC index was then interpreted as synergistic, additive, or antagonistic for values of ≤0.5, 0.5<x<4, or ≥4, respectively.

[1] = antibiotic in combination with 1
[2] = antibiotic in combination with 3
[3] = antibiotic in combination with 4
[4] = antibiotic in combination with 5
[5] = antibiotic in combination with PMBN
[6] = antibiotic in combination with 2

Row | Compound | MICDrug | MICDrug in combo [1] | MICDrug in combo [2] | MICDrug in combo [3] | MICDrug in combo [4] | MICDrug in combo [5] | MICDrug in combo [6]
1 | C[C@H]1[C@H](NC(=O)/C(=N\OC(C)(C)C(=O)O)c2csc(N)n2)C(=O)N1S(=O)(=O)O [Aztreonam, reference compound] | 4 | (0.5) | (1) | (0.0625) | (0.5) | (0.5) | –
2 | CC(C)(O/N=C(\C(=O)N[C@@H]1C(=O)N2C(C(=O)[O-])=C(C[n+]3ccccc3)CS[C@H]12)c1csc(N)n1)C(=O)O [Ceftazidime, reference compound] | 2 | (0.25) | (1) | (0.0625) | (0.25) | (0.25) | (1)
3 | O=C(N[C@H](CO)[C@H](O)c1ccc([N+](=O)[O-])cc1)C(Cl)Cl [Chloramphenicol, reference compound] | 32 | (2) | (4) | (4) | (8) | (2) | (4)
4 | C[C@@H](O)[C@H]1C(=O)N2C(C(=O)O)=C(S[C@@H]3CN[C@H](CNS(N)(=O)=O)C3)[C@H](C)[C@H]12 [Doripenem, reference compound] | 1 | (0.5) | (0.5) | (0.0625) | (0.5) | (0.25) | (0.125)
5 | C[C@H]1c2cccc(O)c2C(=O)C2=C(O)[C@]3(O)C(=O)C(C(N)=O)=C(O)[C@@H](N(C)C)[C@@H]3[C@@H](O)[C@@H]21 [Doxycycline, reference compound] | – | (0.5) | (1) | (4) | (0.25) | (0.25) | (0.125)
6 | C[C@@H]1O[C@@H]1P(=O)(O)O [Fosfomycin, reference compound] | – | (2) | (8) | (8) | (1) | (2) | (0.125)
7 | CC(=O)NC[C@H]1CN(c2ccc(N3CCOCC3)c(F)c2)C(=O)O1 [Linezolid, reference compound] | 1024 | (64) | (0.25) | (0.25) | (32) | (32) | (1)
8 | C[C@@H](O)[C@H]1C(=O)N2C(C(=O)O)=C(S[C@@H]3CN[C@H](C(=O)N(C)C)C3)[C@H](C)[C@H]12 [Meropenem, reference compound] | – | (0.25) | (0.5) | (0.5) | (0.5) | (0.125) | (0.0625)
9 | CN(C)c1ccc(O)c2c1C[C@H]1C[C@H]3[C@H](N(C)C)C(O)=C(C(N)=O)C(=O)[C@@]3(O)C(O)=C1C2=O [Minocycline, reference compound] | 16 | (1) | (2) | (4) | (2) | (0.5) | (4)
10 | COc1c(N2C[C@@H]3CCCN[C@@H]3C2)c(F)cc2c(=O)c(C(=O)O)cn(C3CC3)c12 [Moxifloxacin, reference compound] | 1 | (0.125) | (0.5) | (1) | (0.25) | (0.125) | (1)
11 | CO[C@@H]1[C@@H](OC(N)=O)[C@@H](O)[C@H](Oc2ccc3c(O)c(NC(=O)c4ccc(O)c(CC=C(C)C)c4)c(=O)oc3c2C)OC1(C)C [Novobiocin, reference compound] | 512 | (16) | (0.5) | (2) | (128) | (4) | (8)
12 | CCN1CCN(C(=O)N[C@@H](C(=O)N[C@@H]2C(=O)N3[C@@H]2SC(C)(C)[C@@H]3C(=O)O)c2ccccc2)C(=O)C1=O [Piperacillin, reference compound] | 4 | (2) | (2) | (4) | (2) | (1) | (0.0625)
13 | C=C[C@]1(C)C[C@@H](OC(=O)CO)[C@]2(C)[C@H](C)CC[C@]3(CCC(=O)[C@H]32)[C@@H](C)[C@@H]1O [Pleuromutilin, reference compound] | 512 | (4) | (8) | (4) | (2) | (16) | (4)
14 | CO[C@H]1/C=C/O[C@@]2(C)Oc3c(C)c(O)c4c(O)c(c(/C=N/N5CCN(C)CC5)c(O)c4c3C2=O)NC(=O)/C(C)=C\C=C\[C@H](C)[C@H](O)[C@@H](C)[C@@H](O)[C@@H](C)[C@H](OC(C)=O)[C@@H]1C [Rifampicin, reference compound] | 16 | – | (8) | (0.25) | (1) | (0.0625) | (8)
15 | [H]/N=C(/N)N[C@H]1[C@H](O)[C@@H](O)[C@H](O[C@@H]2O[C@@H](C)[C@](O)(C=O)[C@H]2O[C@@H]2O[C@@H](CO)[C@H](O)[C@@H](O)[C@@H]2NC)[C@@H](N/C(N)=N\[H])[C@@H]1O [Streptomycin, reference compound] | 16 | (8) | (16) | (16) | (8) | (8) | (4)
16 | NC[C@H]1O[C@H](O[C@H]2[C@H](O)[C@@H](O[C@H]3O[C@H](CO)[C@@H](O)[C@H](N)[C@H]3O)[C@H](N)C[C@@H]2N)[C@H](N)C[C@@H]1O [Tobramycin, reference compound] | 1 | (1) | (1) | (1) | (1) | (1) | (1)
17 | COc1cc(Cc2cnc(N)nc2N)cc(OC)c1OC [Trimethoprim, reference compound] | 128 | (16) | (16) | (0.25) | (16) | (8) | (8)
18 | CN[C@H](CC(C)C)C(=O)N[C@H]1C(=O)N[C@@H](CC(N)=O)C(=O)N[C@H]2C(=O)N[C@H]3C(=O)N[C@H](C(=O)N[C@H](C(=O)O)c4cc(O)cc(O)c4-c4cc3ccc4O)[C@H](O)c3ccc(c(Cl)c3)Oc3cc2cc(c3O[C@@H]2O[C@H](CO)[C@@H](O)[C@H](O)[C@H]2O[C@H]2C[C@](C)(N)[C@H](O)[C@H](C)O2)Oc2ccc(cc2Cl)[C@H]1O [Vancomycin, reference compound] | 256 | (8) | (128) | (64) | (2) | (4) | (2)
19 | Gentamicin [reference compound] | 2 | (2) | (2) | (2) | (4) | (2) | (4)
